Data reported in US20250161409A1, “COMPOSITIONS FOR TREATING HYPERHIDROSIS” (PROSPERA BIOTECH, S.L., priority 2022, published 2025).
No end group written: not given here.

Key:
[1] = Attenuation of excessive sweating / hyperhidrosis (summary statements); type: in vivo
[2] = tested on: fusion protein complex (SNARE); assay: In vitro reconstitution (ELISA) of the fusion protein complex (SNARE); type: biochemical; settings: peptide present during the assembly of the fusion complex
Procedure: An additional test of in vitro reconstitution was performed to determine the ability of the peptides to interfere with the formation and stability of the fusion complex (SNARE). The test consists of evaluating the in vitro reconstitution of the fusion protein complex with recombinant proteins produced in Escherichia coli. The reconstitution tests, based on ELISA (Enzyme-Linked Immuno Assay) methods, involve the immobilization of protein SNAP-25 in 96-well plates and the subsequent formation of the fusion protein complex by adding the proteins VAMP and syntaxin in the presence and/or absence of the peptides of the invention. The detection of the complex was performed using an antibody against protein syntaxin (anti-syntaxin), followed by an antibody which recognizes the anti-syntaxin antibody, covalently tagged with a peroxidase. The amount of fusion protein complex was tracked by adding 1,2-phenylenediamine dichloride, whose reaction with the peroxidase produces a product with an orangish-yellow color that absorbs 492 nm in an acid medium.

[3] = tested on: permeabilized chromaffin cells; assay: Inhibition of calcium-induced release of catecholamines in digitonin-permeabilized chromaffin cells; type: cell-based; settings: 1 mM peptide
Text: The neuronal-exocytosis (neurosecretion) inhibiting capabilities of the known neuronal exocytosis inhibitors became evident through a test that evaluates the strength of said compounds in inhibiting the release of catecholamines induced by calcium in chromaffin cells permeabilized with the detergent digitonin, in accordance with the method described by Gutiérrez et al. (FEBS Lett 1995, 372, 39-43, and J. Biol. Chem. 1997, 272, 2634-2639); as well as an in vitro reconstitution test of the fusion complex (SNARE).
Briefly, the chromaffin cell cultures are incubated with [3 H]-epinephrine and [3 H]-norepinephrine, are permeabilized with 20 μM digitonin, and stimulated with calcium (10 μM), in the presence of the compounds to be tested, and the amount of radioactivity released by the cells to the extracellular medium, which is a reflection of the exocytosis of [3 H]-epinephrine and [3 H]-norepinephrine, is measured.

Molecule | attenuation of hyperhidrosis and excessive sweating ([1]; formulation containing 0.5-1.0% Argireline) | attenuation of excessive sweating ([1]; 0.1-0.01%) | amount of fusion complex (SNARE) formed in presence of peptide [2] | inhibition of the release of catecholamines [3]
Ac-Glu-Glu-Met-Gln-Arg-Arg (Ac-EEMQRR) [Argireline®, acetyl-hexapeptide commercialized under the tradename Argireline® by Lipotec, S. A] | modest effect | – | – | –
CCCCCCCCC(=O)OCC(=O)NCc1cc(OC)c(O)cc1I [Calmpasin®, 2-((4-hydroxy-2-iodo-5-methoxybenzyl)amino)-2-oxoethyl nonanoate] | – | unable to attenuate excessive sweating | – | –
SEQ. ID NO. 1: peptide from the amino end of SNAP-25; 6 amino acid peptide whose acetylated derivative is Argireline (EEMQRR) | – | – | significant decrease | approximately 20%
SEQ. ID NO. 2: peptide from the amino end of SNAP-25 (ELEEMQRRADQLA) | – | – | significant decrease | approximately 35%
